Where “and” joins values, the source holds several entries; their conditions need not be identical. Equal entries are not always repeated.
Tests used:
[1] = Observations and limited gross necropsy of the nasal cavity after IN or IM flunixin; format: in vivo, grower pigs
Description: Six female Yorkshire cross grower pigs approximately 8 weeks of age with no history of flunixin administration in a 30-day period were sourced from a production farm and enrolled in the study. The pigs were determined to be healthy by veterinary physical examination and pigs initially weighed between 18.0-22.0 kg. The pigs were individually housed in climate-controlled rooms with a 12:12 light dark cycle at the North Carolina State University College of Veterinary Medicine to prevent cross contamination between pigs and damage to jugular catheters. The pens had non-slip flooring, allowed the pigs to move freely, provided enrichment, and were cleaned at least twice daily. The pigs had ad libitum access to water via a nipple drinker and were fed 0.5 quarts of Nature's Match twice daily. The pigs acclimated for 1-2 days before they were anesthetized for jugular catheter placement as described in the pilot study above and were provided approximately 24 hours to recover from anesthesia before the study began. From the time of arrival until the end of the study, the pigs were monitored at least twice daily for general appearance, attitude, appetite, and wellbeing.

[2] = Cross-over plasma pharmacokinetics of intranasal versus intramuscular flunixin;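 note: grower pigs about 8 weeks old weighing 18.0-22.0 kg, randomized cross-over of both routes separated by a 5-day washout, blood taken via jugular vein catheter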
Description: Six female Yorkshire cross grower pigs approximately 8 weeks of age with no history of flunixin administration in a 30-day period were sourced from a production farm and enrolled in the study. The pigs were determined to be healthy by veterinary physical examination and pigs initially weighed between 18.0-22.0 kg. The pigs were individually housed in climate-controlled rooms with a 12:12 light dark cycle at the North Carolina State University College of Veterinary Medicine to prevent cross contamination between pigs and damage to jugular catheters. The pens had non-slip flooring, allowed the pigs to move freely, provided enrichment, and were cleaned at least twice daily. The pigs had ad libitum access to water via a nipple drinker and were fed 0.5 quarts of Nature's Match twice daily. […] From the time of arrival until the end of the study, the pigs were monitored at least twice daily for general appearance, attitude, appetite, and wellbeing.
To facilitate jugular catheter placement, the pigs were sedated with Telazol®, reconstituted with ketamine and xylazine as previously described, intubated, and maintained on gas isoflurane anesthesia. A 22-gauge, 10 cm intravenous catheter (MILA, International, Inc., Florence, KY, USA) was placed into the jugular vein using sterile technique. It was sutured in place with 3-0 nylon and covered in Ioban™ (3M, St. Paul, MN, USA) to prevent damage. The pigs wore custom jackets throughout the study to protect the catheters and an extension set was attached to allow for easy catheter access and restraint-free blood collection.
All pigs were randomized to determine the first administration route. Group 1 (n=3 pigs) and Group 2 (n=3 pigs) were used in a cross-over design and received 2.2 mg/kg flunixin (Banamine®-S, Merck Animal Health, Madison, NJ, USA) by either the IM or IN route. Following a 5-day washout period, the pigs were administered 2.2 mg/kg flunixin via the opposite route. IN administration was completed using a MAD600 MADgic laryngo-tracheal mucosal atomization device (Teleflex Medical, Morrisville, NC, USA). The luer lock syringe was attached to this device and drug was placed into the nostril. Before administration, 0.22 mL of the drug was added to the device to account for dead space volume. After the IN dose, pigs were encouraged to keep their heads raised for approximately 10 seconds to prevent leakage of the drug out of the nasal cavity. Intramuscular administration was performed in the omotransversarius muscle using a 20G needle.
Blood samples were collected at 0 (pre-treatment), 0.16, 0.33, 0.5, 0.75, 1, 1.5, 2, 3, 4, 6, 8, 12, 18, 24, 36, 48, and 60 hours post treatment. To avoid heparin contamination in samples, at least 1 mL of blood was collected as a purge sample before 1-2 mL of blood was collected and placed into lithium heparin tubes (BD Vacutainer, Franklin Lakes, NJ, USA). The purge blood was injected back into the catheter before the catheter was flushed with 3-4 mL of heparinized saline to prevent coagulation. The blood tubes were placed on ice for no more than 1 hour before they were processed. Plasma was separated by centrifugation at 3500×g for 10 minutes at 4° C., equally split between two cryovials, mixed, and stored at −80° C. until analysis.
To prepare samples, 100 μL of plasma was pipetted into a clean borosilicate glass tube (disposable culture tubes, CWR). To pretreat the plasma, 500 μL of 4% phosphoric acid prepared in water was added to each tube. Solid phase extraction was performed on an oasis prime HLB 96 well μElution plate (Waters Corporation, Milford, MA, USA). The plate was prepared by conditioning the plate with 500 μL of methanol followed by 500 μL of ultrapure water.

[3] = intramuscular 2.2 mg/kg, six grower pigs, plasma, median
[4] = intranasal 2.2 mg/kg, six grower pigs, plasma, median

## Cc1c(Nc2ncccc2C(=O)O)cccc1C(F)(F)F [flunixin meglumine]
[1]; following IN or IM administration, 2.2 mg/kg
  adverse effects on the pigs: No major adverse effects
[1]; following euthanasia, after IN administration
  limited gross necropsy of the nasal cavity: no negative effects
[2]; 2.2 mg/kg IM, individual grower pig (Pig # 1-6, one line per pig), unit not given
  AUCinf of IM administration: 7.63 and 6.25 and 7.82 and 8.54 and 5.29 and 4.99
[2]; 2.2 mg/kg IN, individual grower pig (Pig # 1-6, one line per pig), unit not given
  AUCinf of IN administration: 2.98 and 8.90 and 7.07 and 4.98 and 4.74
[2]; [3]
  AUC Extrap: 0.3%
  λz: 0.1 h⁻¹
[2]; [4]
  AUC Extrap: 0.5%
  AUCinf: 4900 ng·h/mL
  HLλz: 7.4 h
  λz: 0.09 h⁻¹

— patent publication US20240285594A1, “COMPOSITIONS AND METHODS FOR TREATING PAIN IN ANIMALS” (North Carolina State University, priority 2023, published 2024)
